# Results: patent publication US20110015248A1, “SUBSTITUTED HETEROCYCLES” (INTERMED DISCOVERY GMBH, priority 2003, published 2011)
# Where two headings read alike, the source gives them in different places.
# Key:
# [1] = molecular target: T1, Human red blood cell S20 proteasome (Homo sapiens, UniProt P28074); test: Proteasome inhibition assay; format: biochemical
# T1 construct: host or cells: human red blood cells (native tissue preparation)
# Description: The test compound is diluted at various concentrations in 2.5% DMSO in a polypropylene 96 well plate. […] The diluted working solution (10 μl/well) is transferred into a polypropylene 96 well plate. The assay buffer consists of 50 mM Tris-HCl (pH 8.0), 0.5 mM EDTA, 0.005% TritonX-100, 0.005% SDS, prepared as a stock solution at 10× concentration. The peptide substrate (Suc-Leu-Leu-Val-Tyr-MCA; 3120v; Peptide Institute; Osaka, Japan) is stored at 10 mM in 100% DMSO. […] The compound and the substrate are preincubated for 10 min at room temperature. Then the mixture of the compound and the substrate (10 μl/well) is transferred to a black non-coated 384 well assay plate (Nunc) and autofluorescence emission is measured at 460 nm (λex, 360 nm) by using a ARVO fluorescence plate leader (Perkin Elmer, Tokyo, Japan).
# Human red blood cell S20 proteasome are obtained from Affinity research products Ltd (Cat#PW8720; Exeter, UK) and stored at −80° C. The proteasome is diluted 1 in 1000 with 1× concentration of the assay buffer and 10 μl is added to the substrates and the inhibitor mixture in the plate. The proteolytic reaction is performed at room temperature. The fluorescence emission is continuously measured for 90 min. IC50 values of the compounds are determined at initial velocity of the reaction.
# [2] = substrate Suc-Leu-Leu-Val-Tyr-MCA, room temperature, IC50 determined at initial velocity of the reaction, read-out: IC50
SMILES,melting point [°C],IC50 [1] [nM],"IC50 [1, 2] [nM]"
CCCCCC(O)[C@H]1C(=O)N[C@@]2(C(O)[C@@H]3C=CCCC3)C(=O)O[C@@]12C (stereo partly drawn),144,–,–
CCCCCC[C@H]1C(=O)N[C@](C(=O)SCc2ccccc2)([C@@H](O)[C@@H]2C=CCCC2)[C@@]1(C)O (stereo in doubt),138,–,–
CCCCCC[C@H]1C(=O)N[C@](C(=O)SCCNC(C)=O)([C@@H](O)[C@@H]2C=CCCC2)[C@@]1(C)O (stereo in doubt),82,–,–
CCCCCC[C@H]1C(=O)N[C@](C(=O)SC2CCCCC2)([C@@H](O)[C@@H]2C=CCCC2)[C@@]1(C)O (stereo in doubt),85,–,–
CCCCCC(O)[C@H]1C(=O)N[C@](C(=O)SCCNC(C)=O)([C@@H](O)[C@@H]2C=CCCC2)[C@@]1(C)O (stereo in doubt),80,–,–
CCCCCC(O)[C@H]1C(=O)N[C@](C(=O)SCC(=O)OC)([C@@H](O)[C@@H]2C=CCCC2)[C@@]1(C)O (stereo in doubt),75,–,–
CCCCCC[C@H]1C(=O)N[C@](C(=O)SCCC(=O)OC)([C@@H](O)C2CCCCC2)[C@@]1(C)O (stereo in doubt),132,–,–
CCCCCC[C@H]1C(=O)N[C@@]2([C@@H](O)C3CCCCC3)C(=O)O[C@@]12C (stereo in doubt),167,–,–
"CCCCCC(O)[C@H]1C(=O)N[C@](C(=O)SCc2ccccc2)([C@@H](O)[C@@H]2C=CCCC2)[C@@]1(C)O (stereo in doubt) [Example 14, 2-(Cyclohex-2-enyl-hydroxy-methyl)-3-hydroxy-4-(1-hydroxy-hexyl)-3-methyl-5-oxo-pyrrolidine-2-carbothioic acid S-benzyl ester]",123,–,–
"CCCCCC[C@H]1C(=O)N[C@@]2([C@@H](O)[C@@H]3C=CCCC3)C(=O)O[C@@]12C [Example 1, (1R,4R,5S)-1-[(S)-(1S)-2-cyclohexen-1-yl(hydroxy)methyl]-4-hexyl-5-methyl-6-oxa-2-aza-bicyclo[3.2.0]heptane-3,7-dione]",–,1,–
"CCCCCC(O)[C@H]1C(=O)N[C@](C(=O)O)(C(O)[C@@H]2C=CCCC2)[C@@]1(C)O (stereo partly drawn) [Example 4, (3S,4R)-2-[(S)-(1S)-2-cyclohexen-1-yl(hydroxy)methyl]-3-hydroxy-4-[1-hydroxy-hexyl]-3-methyl-5-oxo-D-proline]",–,–,305
"CCCCCC[C@H]1C(=O)N[C@](C(=O)SCCC(=O)OC)([C@@H](O)[C@@H]2C=CCCC2)[C@@]1(C)O [Example 12, 3-[2-(Cyclohex-2-enyl-hydroxy-methyl)-4-hexyl-3-hydroxy-3-methyl-5-oxo-pyrrolidine-2-carbonylsulfanyl]-propionic acid methyl ester]",64,0.2,–
"CCCCCC[C@H]1C(=O)N[C@](C(=O)SCc2ccccc2)([C@@H](O)C2CCCCC2)[C@@]1(C)O [Example 17, 2-(Cyclohexyl-hydroxy-methyl)-4-hexyl-3-hydroxy-3-methyl-5-oxo-pyrrolidine-2-carbothioic acid S-benzyl ester]",181,–,106
